# According to patent US20260285853A1, “COMPOUNDS AND METHODS FOR MODULATING SPLICING” (REMIX THERAPEUTICS INC., priority 2023, published 2026):
# Assays:
# Assay type in all cases: cell-based
# MYB mRNA [1] = test: Splicing RT-qPCR assay, canonical (CJ) and alternative (AJ) junction mRNA, K562 cells; settings: Homo sapiens, K562.3 cells, 24 hours; for AC50: read-out: MYB AJ (AC50, increase in AJ mRNA); for IC50: read-out: MYB CJ (IC50, decrease in CJ mRNA)
# Method: (§1) Compounds described herein were used to modulate RNA transcript abundance in cells. The expression of a target mRNA was measured by detecting the formation of an exon-exon junction in the canonical transcript (CJ). A compound mediated exon-inclusion event was detected by observing an increase in formation of a new junction with an alternative exon (AJ). Real-time qPCR assays were used to detect these splicing switches and interrogate the potency of various compounds towards different target genes. A high-throughput real time quantitative PCR (RT-qPCR) assay was developed to measure these two isoforms of the mRNA (CJ and AJ) for exemplary genes, such as HTT, SMN2, and MYB, together with a control housekeeping gene, GAPDH or GUSB or PPIA, used for normalization. Briefly, the A673 or K562 cell line was treated with various compounds described herein (e.g., compounds of Formula (I)). After treatment, the levels of the HTT, MYB, or SMN2 mRNA targets were determined from each sample of cell lysate by cDNA synthesis followed by qPCR.
# (§2) • Cells-to-CT 1-step kit: ThermoFisher A25602, Cells-to-CT lysis reagent: ThermoFisher 4391851C, TaqMan™ Fast Virus 1-Step Master Mix: ThermoFisher 4444436 • GAPDH: VIC-PL, ThermoFisher 4326317E (Assay: Hs99999905_m1)—used for K562/suspension cell lines • GUSB: VIC-PL, ThermoFisher 4326320E (Assay: Hs99999908_m1)—used for K562/suspension cell lines • PPIA: VIC-PL, ThermoFisher 4326316E (Assay: Hs99999904_m1)—used for A673/adherent cell lines
# (§3) The K562 cell line was cultured in IMDM with 10% FBS. For K562, cells were diluted with full growth media and plated in either a 96-well plate (50,000 cells in 50 uL media per well) or a 384-well plate (8,000-40,000 cells in 45 uL media per well). An 11-point 3-fold serial dilution of the compounds were made in DMSO then diluted in media in an intermediate plate. Compound was transferred from the intermediate plate to the cell plate with the top dose at a final concentration of 10 uM in the well. Final DMSO concentration was kept at or below 0.25%. Final volume was 100 uL for 96-well plate and 50 uL for 384-well plate. The cell plate was then placed in an incubator at 37° C. with 5% CO2 for 24 hours.
# (§4) The cells were then gently washed with 50 uL-100 uL cold PBS before proceeding to addition of lysis buffer. 30 uL-50 uL of room temperature lysis buffer with DNAse I (and optionally RNAsin) was added to each well. Cells were shaken/mixed thoroughly at room temperature for 5-10 minutes for lysis to take place and then 3 uL-5 uL of room temperature stop solution was added and wells were shaken/mixed again. After 2-5 minutes, the cell lysate plate was transferred to ice for RT-qPCR reaction setup. The lysates could also be frozen at −80° C. for later use.
# (§5) In some cases, a direct lysis buffer was used. An appropriate volume of 3× lysis buffer (10 mM Tris, 150 mM NaCl, 1.5%-2.5% Igepal and 0.1-1 U/uL RNAsin, pH 7.4) was directly added to either K562 or A673 cells in media and mixed by pipetting 3 times. The plates were then incubated at room temperature with shaking/rocking for 20-50 minutes to allow for lysis to take place. After this time, the cell lysate plate was transferred to ice to set up for the RT-qPCR reactions. The lysates could also be frozen at −80° C. for later use.
# (§6) To set up 10 uL RT-qPCR reactions, cell lysates were transferred to 384-well qPCR plates containing the master mix according to the table below. The plates were sealed, gently vortexed, and spun down before the run. The volumes were adjusted accordingly in some instances where the reaction was carried in 20 uL. The table below summarizes the components of the RT-qPCR reactions:
# (§7) The RT-qPCR reaction was performed using a QuantStudio (ThermoFisher) under the following fast cycling conditions. All samples and standards were analyzed at least in duplicate. In some instances, bulk room temperature (RT) step of 5-10 minutes was completed for all plates before proceeding with qPCR. […]
# HTT mRNA [2] = test: as above; settings: Homo sapiens, K562.3 cells, 24 hours; for AC50: read-out: HTT AJ (AC50, increase in AJ mRNA); for IC50: read-out: HTT CJ (IC50, decrease in CJ mRNA)
# Method: as §1, §2, §3, §4, §5, §6, §7
# MYB mRNA [3] = test: Gene panel canonical junction qPCR assay, decrease in CJ mRNA, Table 3; settings: decrease in canonical junction (CJ) mRNA, gene panel qPCR, Table 3
# Summary of the method: (§8)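 Cells: A673 or K562; 24 h compound exposure, 37 °C, 5% CO2; 11-pt 3-fold series from 10 uM final; DMSO ≤0.25%. Lysate → cDNA → qPCR with junction-spanning primers/probe for CJ transcript. ΔCt vs housekeeper, ΔΔCt vs DMSO, 2^(−ΔΔCt), % response, 4PL → IC50.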
# SMN2 mRNA = test: as above; settings: decrease in canonical junction (CJ) mRNA, gene panel qPCR, Table 3
# Summary of the method: as §8
# HTT mRNA [4] = test: as above; settings: decrease in canonical junction (CJ) mRNA, gene panel qPCR, Table 3
# Summary of the method: as §8
# [5] = tested on: SH-SY5Y (human neuroblastoma) cells; test: Cell viability, Cell Titer Glo 2.0 assay; settings: read-out: Viability SHSY5Y.3 GI50
# Summary of the method: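 CellTiter-Glo 2.0 luminescence read-out after 72 h compound exposure (37 °C, 5% CO2); medium-only wells as blank. DMSO 0.1% final.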
# MYB mRNA [6] = test: Splicing RT-qPCR assay (THP), Table 2A; settings: Table 2A (THP); for AC50: AJ mRNA increase, read-out: MYB AJ (increase in alternative junction mRNA, AC50); for IC50: CJ mRNA decrease, read-out: MYB CJ (decrease in canonical junction mRNA, IC50)
# HTT mRNA [7] = test: Splicing RT-qPCR assay (THP), Table 2A; settings: Table 2A (THP); for AC50: AJ mRNA increase, read-out: HTT AJ (increase in alternative junction mRNA, AC50); for IC50: CJ mRNA decrease, read-out: HTT CJ (decrease in canonical junction mRNA, IC50)
IC50 (MYB mRNA [1]) [µM],IC50 (HTT mRNA [2]) [µM],IC50 (MYB mRNA [3]) [µM],IC50 (SMN2 mRNA) [µM],IC50 (HTT mRNA [4]) [µM],GI50 [5] [µM],IC50 (MYB mRNA [6]) [µM],IC50 (HTT mRNA [7]) [µM],Compound,AC50 (MYB mRNA [1]) [µM],AC50 (HTT mRNA [2]) [µM],AC50 (MYB mRNA [6]) [µM],AC50 (HTT mRNA [7]) [µM]
> 10,> 10,> 10,1 to 10,> 10,> 10,–,–,"CCNC1CCN(c2ccc(C(=O)Nc3cc(F)c4nc(C)cn4c3)c3[nH]ccc23)CC1 [Compound 172, 4-[4-(ethylamino)piperidin-1-yl]-N-(8-fluoro-2-methylimidazo[1,2-a]pyridin-6-yl)-1H-indole-7-carboxamide]",1 to 10,> 10,–,–
0.1 to 1,> 10,0.1 to 1,< 0.1,> 10,1 to 10,–,–,"CCNC1CCN(c2ccc(C(=O)Nc3cc(F)c4nc(C)cn4c3)c3[nH]ncc23)CC1 [Compound 266, 4-[4-(ethylamino)piperidin-1-yl]-N-(8-fluoro-2-methyl-imidazo[1,2-a]pyridin-6-yl)-1H-indazole-7-carboxamide]",0.1 to 1,> 10,–,–
> 10,> 10,> 10,1 to 10,> 10,> 10,–,–,"Cc1cn2cc(C(=O)Nc3ccc(N4C[C@@H](C)N[C@@H](C)C4)c4cn[nH]c34)cc(F)c2n1 [Compound 215, N-[4-[(3R,5S)-3,5-dimethylpiperazin-1-yl]-1H-indazol-7-yl]-8-fluoro-2-methyl-imidazo[1,2-a]pyridine-6-carboxamide]",> 10,> 10,–,–
0.1 to 1,1 to 10,0.1 to 1,< 0.1,1 to 10,1 to 10,–,–,"COCCN[C@H]1CCN(c2ccc(C(=O)Nc3cc(F)c4nc(C)cn4c3)c3nn(C)cc23)C1 [Compound 112, N-(8-fluoro-2-methyl-imidazo[1,2-a]pyridin-6-yl)-4-[(3S)-3-(2-methoxyethylamino)pyrrolidin-1-yl]-2-methyl-indazole-7-carboxamide]",< 0.1,> 10,–,–
–,–,> 10,1 to 10,> 10,1 to 10,> 10,> 10,"CCNC1CCN(c2cc(F)c(C(=O)Nc3cc(F)c4cn(C)nc4c3)c3nn(C)cc23)CC1 [Compound 300, 4-[4-(ethylamino)-1-piperidyl]-6-fluoro-N-(4-fluoro-2-methylindazol-6-yl)-2-methyl-indazole-7-carboxamide]",–,–,> 10,> 10
–,–,> 10,> 10,> 10,> 10,> 10,> 10,"CCNC1CCN(c2cc(F)c(C(=O)Nc3cc4c(C)nc(C)cn4n3)c3nn(C)cc23)CC1 [Compound 302, N-(4,6-dimethylpyrazolo [1,5-a]pyrazin-2-yl)-4-[4-(ethylamino)-1-piperidyl]-6-fluoro-2-methyl-indazole-7-carboxamide]",–,–,> 10,> 10
–,–,0.1 to 1,< 0.1,1 to 10,1 to 10,0.1 to 1,1 to 10,"CCNC1CCN(c2ccc(C(=O)Nc3cc(C#N)c4nc(C)cn4c3)c3nn(C)cc23)CC1 [Compound 307, N-(8-cyano-2-methyl-imidazo[1,2-a]pyridin-6-yl)-4-[4-(ethylamino)-1-piperidyl]-2-methyl-indazole-7-carboxamide]",–,–,0.1 to 1,1 to 10
–,–,> 10,0.1 to 1,> 10,1 to 10,> 10,> 10,"CCNC1CCN(c2cc(F)c(C(=O)Nc3cn4c(Cl)c(C)nc4c(F)c3OC)c3nn(C)cc23)CC1 [Compound 308, N-(3-chloro-8-fluoro-7-methoxy-2-methyl-imidazo [1,2-a]pyridin-6-yl)-4-[4-(ethylamino)-1-piperidyl]-6-fluoro-2-methyl-indazole-7-carboxamide]",–,–,> 10,> 10
–,–,> 10,> 10,> 10,> 10,> 10,> 10,"CCNC1CCN(c2ccc(C(=O)Nc3cn4cc(C5CC5)nc(C)c4n3)c3nn(C)cc23)CC1 [Compound 309, N-(6-cyclopropyl-8-methylimidazo[1,2-a]-pyrazin-2-yl)-4-[4-(ethylamino)-1-piperidyl]-2-methyl-indazole-7-carboxamide]",–,–,> 10,> 10
–,–,< 0.1,< 0.1,> 10,1 to 10,< 0.1,> 10,"CCNC1CCN(c2cc(F)c(C(=O)Nc3cn4cc(C)nc(C)c4n3)c3nn(C)cc23)CC1 [Compound 306, N-(6,8-dimethylimidazo[1,2-a]pyrazin-2-yl)-4-(4-(ethylamino)-piperidin-1-y1)-6-fluoro-2-methyl-2H-indazole-7-carboxamide 2,2,2-trifluoroacetate]",–,–,< 0.1,1 to 10
–,–,> 10,> 10,> 10,> 10,> 10,> 10,"CCNC1CCN(c2cc(F)c(C(=O)Nc3cc(F)c4nc(C)n(C)c4c3)c3nn(C)cc23)CC1 [Compound 299, 4-[4-(ethylamino)-1-piperidyl]-6-fluoro-N-(7-fluoro-2,3-dimethyl-benzimidazol-5-yl)-2-methyl-indazole-7-carboxamide]",–,–,> 10,> 10
